Results: PMC7764612 (Pharmaceuticals, 2020)
Where “and” joins values, the source holds several entries; their conditions need not be identical. Identical values can stand only once. Entries after “also recorded” stand apart in the source; their conditions may differ.

Legend:
in vitro = conditions: human
TBEV Neudoerfl strain [1] = experiment: microbe, parasite or virus in culture; format: cell-based, tick-borne encephalitis virus; conditions: for IC50: Tick-borne encephalitis virus, A549, 72 h, read-out: IC50 (concentration to reduce infectious viral titers by 50%)
TBEV Neudoerfl strain [2] = format: cell-based, tick-borne encephalitis virus
TBEV Hypr strain = format: cell-based, tick-borne encephalitis virus
TBEV E protein = format: cell-based, tick-borne encephalitis virus

| SMILES | CC50 (in vitro) | Effect on TBEV titers in dose-response assay (TBEV Neudoerfl strain [1]) | Reduction in viral titer (TBEV Neudoerfl strain [1]) | SI (selectivity index: CC50/IC50) (TBEV Neudoerfl strain [1]) | IC50 (TBEV Neudoerfl strain [1]) | Inhibition of TBEV propagation (size and number of plaques) (TBEV Neudoerfl strain [2]) | Reduction in the number of plaques (TBEV Neudoerfl strain [2]) | TBEV-induced cytopathic effect / rate of cell death (TBEV Hypr strain) | Production of TBEV E protein (Western blot) (TBEV E protein) | Virus detected in culture supernatant (viral titer) (TBEV Neudoerfl strain [1]) | Plaques detected in dose-response plaque reduction assay (TBEV Neudoerfl strain [2]) | melting point |
| --- | --- | --- | --- | --- | --- | --- | --- | --- | --- | --- | --- | --- |
| CC(=O)OC[C@H]1O[C@@H](NC(=O)[C@H]2O[C@@H](n3ccc(=O)[nH]c3=O)[C@@H]3OC(C)(C)O[C@@H]32)[C@H](OC(C)=O)[C@@H](OC(C)=O)[C@@H]1OC(C)=O [Compound 13] | 129 µM |  |  |  |  |  |  |  |  |  |  |  |
| CC(=O)OC[C@H]1O[C@@H](NC(=O)[C@H]2O[C@@H](n3ccc(=O)[nH]c3=O)[C@@H]3OC(C)(C)O[C@@H]32)[C@H](OC(C)=O)[C@@H](OC(C)=O)[C@H]1OC(C)=O [Compound 14] | 114 µM |  |  |  |  |  |  |  |  |  |  |  |
| CC1(C)O[C@@H]2[C@H](O1)[C@@H](C(=O)N[C@@H]1O[C@H](COCc3ccccc3)[C@@H](OCc3ccccc3)[C@H](OCc3ccccc3)[C@H]1OCc1ccccc1)O[C@H]2n1ccc(=O)[nH]c1=O [Compound 15, N-(2″,3″,4″,6″-tetra-O-benzyl-β-D-galactopyranosyl)-2′,3′-O-isopropylidene-uridine-5′-amide] | 153 µM |  |  |  |  |  |  |  |  |  |  |  |
| CC(=O)OC[C@H]1O[C@@H](n2cc(CNC(=O)[C@H]3O[C@@H](n4ccc(=O)[nH]c4=O)[C@@H]4OC(C)(C)O[C@@H]43)nn2)[C@H](OC(C)=O)[C@@H](OC(C)=O)[C@@H]1OC(C)=O [Compound 16] | 136 µM |  |  |  |  |  |  |  |  |  |  |  |
| CC(=O)OC[C@H]1O[C@@H](n2cc(CNC(=O)[C@H]3O[C@@H](n4ccc(=O)[nH]c4=O)[C@@H]4OC(C)(C)O[C@@H]43)nn2)[C@H](OC(C)=O)[C@@H](OC(C)=O)[C@H]1OC(C)=O [Compound 17] | 137 µM |  |  |  |  |  |  |  |  |  |  |  |
| CC(=O)OC[C@H]1O[C@@H](n2cc(CNC(=O)[C@H]3O[C@@H](n4ccc(=O)[nH]c4=O)[C@H](O[Si](C)(C)C(C)(C)C)[C@@H]3O[Si](C)(C)C(C)(C)C)nn2)[C@H](OC(C)=O)[C@@H](OC(C)=O)[C@@H]1OC(C)=O [Compound 18, 1-(2″,3″,4″,6″-tetra-O-acetyl-β-D-glucopyranosyl)-4-(2′,3′-di-O-tert-butyldimethylsilyl-uridine-5′-carbonylaminomethyl)-[1,2,3]-triazole] | 69 µM | significantly reduced TBEV titers in a dose-dependent manner | 10^3–10^6 fold | 7.4 | 9.3 µM | effectively inhibited virus propagation | 98% | strongly reduced; also recorded: significantly increased cell survival | dose-dependent reduction |  |  |  |
| CC(=O)OC[C@H]1O[C@@H](n2cc(CNC(=O)[C@H]3O[C@@H](n4ccc(=O)[nH]c4=O)[C@H](O[Si](C)(C)C(C)(C)C)[C@@H]3O[Si](C)(C)C(C)(C)C)nn2)[C@H](OC(C)=O)[C@@H](OC(C)=O)[C@H]1OC(C)=O [Compound 19, 1-(2″,3″,4″,6″-tetra-O-acetyl-β-D-galactopyranosyl)-4-(2′,3′-di-O-tert-butyldimethylsilyl-uridine-5′-carbonylaminomethyl)-[1,2,3]-triazole] | 77 µM | significantly reduced TBEV titers in a dose-dependent manner | 10^3–10^6 fold | 5.1 | 15.1 µM | effectively inhibited virus propagation | 81% | strongly reduced; also recorded: significantly increased cell survival | dose-dependent reduction |  |  |  |
| CC(=O)OC[C@H]1O[C@@H](n2cc(COC[C@H]3O[C@@H](n4ccc(=O)[nH]c4=O)[C@H](O[Si](C)(C)C(C)(C)C)[C@@H]3O[Si](C)(C)C(C)(C)C)nn2)[C@H](OC(C)=O)[C@@H](OC(C)=O)[C@@H]1OC(C)=O [Compound 20, 1-(2″,3″,4″,6″-tetra-O-acetyl-β-D-glucopyranosyl)-4-(2′,3′-di-O-tert-butyldimethylsilyl-uridine-5′-O-methyl)-[1,2,3]-triazole] | 184 µM | significantly reduced TBEV titers in a dose-dependent manner | 10^3 fold | 49.7 | 3.7 µM | nearly a complete inhibition of TBEV propagation | 96% and 75% | nearly completely inhibited; also recorded: significantly increased cell survival | complete inhibition of viral protein synthesis | no virus was detected | no plaques were detected |  |
| CC(=O)OC[C@H]1O[C@@H](n2cc(COC[C@H]3O[C@@H](n4ccc(=O)[nH]c4=O)[C@H](O[Si](C)(C)C(C)(C)C)[C@@H]3O[Si](C)(C)C(C)(C)C)nn2)[C@H](OC(C)=O)[C@@H](OC(C)=O)[C@H]1OC(C)=O [Compound 21, 1-(2″,3″,4″,6″-tetra-O-acetyl-β-D-galactopyranosyl)-4-(2′,3′-di-O-tert-butyldimethylsilyl-uridine-5′-O-methyl)-[1,2,3]-triazole] | 116 µM | significantly reduced TBEV titers in a dose-dependent manner | 10^4 fold | 24.7 | 4.7 µM | nearly a complete inhibition of TBEV propagation | 92% and 62% | nearly completely inhibited; also recorded: significantly increased cell survival | dose-dependent reduction; also recorded: greatly decreased at all tested concentrations | no virus was detected | no plaques were detected |  |
| CC(=O)OC[C@H]1O[C@@H](OCc2cn(C[C@H]3O[C@@H](n4ccc(=O)[nH]c4=O)[C@@H]4OC(C)(C)O[C@@H]43)nn2)[C@H](OC(C)=O)[C@@H](OC(C)=O)[C@@H]1OC(C)=O [Compound 22, 2′,3′-O-isopropylidene-5′-deoxy-5′-[4-(2″,3″,4″,6″-tetra-O-acetyl-β-D-glucopyranosyl-oxymethyl)-1,2-3-triazol-1-yl]uridine] | 173 µM |  |  |  |  |  |  |  |  |  |  | 108 to 110 °C |
| CC(=O)OC[C@H]1O[C@@H](OCc2cn(C[C@H]3O[C@@H](n4ccc(=O)[nH]c4=O)[C@@H]4OC(C)(C)O[C@@H]43)nn2)[C@H](OC(C)=O)[C@@H](OC(C)=O)[C@H]1OC(C)=O [Compound 23, 2′,3′-O-isopropylidene-5′-deoxy-5′-[4-(2″,3″,4″,6″-tetra-O-acetyl-β-D-galactopyranosyl-oxymethyl)-1,2-3-triazol-1-yl]uridine] | 157 µM |  |  |  |  |  |  |  |  |  |  | 101 to 105 °C |
